In brackets after ≈: the same amount, converted by molar mass. Read-outs that look alike come from different tables or passages of the source.
How the values were obtained:
Gardnerella piotii = assay: MIC / MBC99.5 assessment in suspension; format: cell-based; conditions: Gardnerella piotii; for MIC: read-out: MIC
Method: (§1) The minimum inhibitory concentration (MIC), which is a standard measure of the activity of antimicrobials, was determined according to the Clinical and Laboratory Standards Institute protocol (2018) Methods for Antimicrobial Susceptibility Testing of Anaerobic Bacteria (Carpenter et al., 2018). […] Controls for growth in the absence of antimicrobials were also included. OD600 was recorded by a microplate reader (Tecan, Grodig, Austria) after incubation at 37° C. for 48 h or, for some fast-growing strains, after incubation for 24 h. Absence of growth was defined as OD600≤0.14. […] MIC readout and MBC99.5 spotting were performed after 72 h incubation for H2B10B11.
(§2) However, topical intravaginal antibiotic administration is recommended for BV therapy, which allows to reach concentrations of active ingredients in the mg/mL range. […] Abbreviations: n.d., not determined; SJHB, St. Jan Hospital Bruges.
(§3) MIC90 is defined as the MIC value for 90% of the tested strains. For PM-477 (H2B10), the resistance breakpoint is not defined, therefore a “% resistant” is not defined (n.d.).

Gardnerella leopoldii = assay: MIC / MBC99.5 assessment in suspension; format: cell-based; conditions: Gardnerella leopoldii; for MIC: read-out: MIC; for MBC: read-out: MBC99.5
Method: as §1, §2, §3

Gardnerella vaginalis = assay: microbe, parasite or virus in culture; format: cell-based; conditions: Gardnerella vaginalis
Method: as §1, §2, §3

Gardnerella swidsinskii = assay: microbe, parasite or virus in culture; format: cell-based; conditions: Gardnerella swidsinskii
Method: as §1, §2, §3

All Gardnerella = assay: MIC assessment in suspension, panel of 22 strains; format: cell-based, Gardnerella spp.
Method: as §1, §2, §3

[1] = test system: Gardnerella type strains and patient isolates; assay: MIC and MBC99.5 on about 100 type strains and patient isolates of various origins; format: cell-based, Gardnerella spp.
Method: as §1
MIC and MBC99.5 of H2B10B11 on a panel of about 100 Gardnerella type strains and patient isolates from various geographic origins were determined following the CLSI protocol. […] For a subset of fast-growing strains thereof and for some additional strains, MIC determination was performed after 48 h of incubation to bridge the results to earlier assessed MIC values (FIG. 6). In total, MIC was determined for 104 different strains (the MIC of 15 strains was determined both, after 48 h and 72 h). […] The number of strains in each group is stated on the right site of the graph.

[2] = test system: Gardnerella strains from vaginal swabs of BV patients; assay: MIC and MBC99.5 on 18 in-house BV patient isolates; format: cell-based, Gardnerella spp.
Method: as §1

[3] = G. piotii (FB041) UGent FB041, suspension
[4] = G. piotii (Gp17) UGent 18.01(T)
[5] = G. piotii (Gp17) UGent 18.01(T), suspension
[6] = G. piotii (Gp22) UGent 21.28, suspension
[7] = G. piotii (P80275) UGent P80275
[8] = G. piotii (P80275) UGent P80275, suspension
[9] = G. leopoldii (BV13) UGent BV13.2, suspension
[10] = G. leopoldii (BV13) UGent BV13.2
[11] = G. leopoldii (Gl11) UGent 09.48, suspension
[12] = G. leopoldii (Gl11) UGent 09.48
[13] = ATCC14018, 24 h, read-out: MBC99.5, G. vaginalis (Gv9) ATCC 14018(T), reduces CFU by 99.5% within 24 h
[14] = ATCC14018, G. vaginalis (Gv9) ATCC 14018(T), suspension
[15] = G. vaginalis (BV50) UGent BV50.1, suspension
[16] = G. vaginalis (FB049) UGent FB049-01, suspension
[17] = read-out: MBC99.5, G. vaginalis (BV111) UGent BV111.5
[18] = read-out: MBC99.5, G. vaginalis (FB049) UGent FB049-01
[19] = G. swidsinskii (BV7) UGent BV7.1, suspension
[20] = G. swidsinskii (Gs23) GS 10234, suspension
[21] = G. swidsinskii (Gs24) GS 9838-1(T), suspension
[22] = read-out: MBC99.5, G. swidsinskii (BV7) UGent BV7.1
[23] = read-out: MBC99.5, G. swidsinskii (Gs23) GS 10234
[24] = read-out: MBC99.5, G. swidsinskii (Gs24) GS 9838-1(T)
[25] = MIC after 72 h, unpaired t-test of log2-transformed data

CCS(=O)(=O)CCn1c([N+](=O)[O-])cnc1C [TDZ, tinidazole]
MBC (Gardnerella piotii; G. piotii (FB041) UGent FB041): 128 µg/mL (≈ 518 µM) | MIC (Gardnerella piotii; [3]): 64 µg/mL (≈ 259 µM) | MBC (Gardnerella piotii; [4]): > 128 µg/mL | MIC (Gardnerella piotii; [5]): 64 µg/mL (≈ 259 µM) | MBC (Gardnerella piotii; G. piotii (Gp22) UGent 21.28): > 128 µg/mL | MIC (Gardnerella piotii; [6]): > 128 µg/mL | MBC (Gardnerella piotii; [7]): 128 µg/mL (≈ 518 µM) | MIC (Gardnerella piotii; [8]): 32 µg/mL (≈ 129 µM) | MIC (Gardnerella leopoldii; [9]): > 128 µg/mL | MBC (Gardnerella leopoldii; [10]): 128 µg/mL (≈ 518 µM) | MIC (Gardnerella leopoldii; [11]): 128 µg/mL (≈ 518 µM) | MBC (Gardnerella leopoldii; [12]): > 128 µg/mL | MBC (Gardnerella vaginalis; [13]): > 128 µg/mL | MIC (Gardnerella vaginalis; [14]): 128 µg/mL (≈ 518 µM) | MIC (Gardnerella vaginalis; [15]): 64 µg/mL (≈ 259 µM) | MIC (Gardnerella vaginalis; [16]): 8 µg/mL (≈ 32.4 µM) | MIC (Gardnerella vaginalis; G. vaginalis (FB061) UGent FB061-03, suspension, read-out: MIC): 4 µg/mL (≈ 16.2 µM) | MBC (Gardnerella vaginalis; G. vaginalis (FB061) UGent FB061-03, read-out: MBC99.5): 32 µg/mL (≈ 129 µM) | MIC (Gardnerella vaginalis; G. vaginalis (Gv1) UGent 09.07, suspension, read-out: MIC): > 128 µg/mL | MBC (Gardnerella vaginalis; G. vaginalis (Gv1) UGent 09.07, read-out: MBC99.5): > 128 µg/mL | MIC (Gardnerella vaginalis; G. vaginalis (Gv5) UGent 09.01, suspension, read-out: MIC): 4 µg/mL (≈ 16.2 µM) | MBC (Gardnerella vaginalis; G. vaginalis (Gv5) UGent 09.01, read-out: MBC99.5): 8 µg/mL (≈ 32.4 µM) | MIC (Gardnerella vaginalis; G. vaginalis (Gv8) UGent 25.49, suspension, read-out: MIC): 4 µg/mL (≈ 16.2 µM) | MBC (Gardnerella vaginalis; G. vaginalis (Gv8) UGent 25.49, read-out: MBC99.5): 32 µg/mL (≈ 129 µM) | MBC (Gardnerella vaginalis; [17]): 128 µg/mL (≈ 518 µM) | MBC (Gardnerella vaginalis; [18]): 64 µg/mL (≈ 259 µM) | MIC (Gardnerella swidsinskii; [19]): 128 µg/mL (≈ 518 µM) | MIC (Gardnerella swidsinskii; [20]): > 128 µg/mL | MIC (Gardnerella swidsinskii; [21]): > 128 µg/mL | MBC (Gardnerella swidsinskii; [22]): > 128 µg/mL | MBC (Gardnerella swidsinskii; [23]): > 128 µg/mL | MBC (Gardnerella swidsinskii; [24]): > 128 µg/mL

CCC[C@@H]1C[C@@H](C(=O)N[C@@H]([C@H]2O[C@H](SC)[C@H](O)[C@@H](O)[C@H]2O)[C@H](C)Cl)N(C)C1 [CLI, clindamycin]
N resistant (All Gardnerella; N=22, resistance ≥32 μg/mL MDZ, ≥8 μg/mL CLI): 0 | MIC Range (All Gardnerella; N=22 strains): <0.06-2^ μg/mL | MIC90 (All Gardnerella; N=22 strains, read-out: MIC90): 0.5 µg/mL (≈ 1.18 µM) | MBC (Gardnerella piotii; G. piotii (BV049) UGent BV049.1): 0.125 µg/mL (≈ 0.294 µM) | MIC (Gardnerella piotii; G. piotii (BV140) UGent BV140.2, suspension): 2 µg/mL (≈ 4.71 µM) | MBC (Gardnerella piotii; G. piotii (BV154) UGent BV154.1): 0.5 µg/mL (≈ 1.18 µM) | MIC (Gardnerella piotii; G. piotii (BV154) UGent BV154.1, suspension): 0.5 µg/mL (≈ 1.18 µM) | MBC (Gardnerella piotii; G. piotii (FB041) UGent FB041): 2 µg/mL (≈ 4.71 µM) | MIC (Gardnerella piotii; [3]): 1 µg/mL (≈ 2.35 µM) | MBC (Gardnerella piotii; [4]): 1 µg/mL (≈ 2.35 µM) | MIC (Gardnerella piotii; [5]): 0.5 µg/mL (≈ 1.18 µM) | MBC (Gardnerella piotii; G. piotii (Gp22) UGent 21.28): 0.5 µg/mL (≈ 1.18 µM) | MIC (Gardnerella piotii; [6]): 0.25 µg/mL (≈ 0.588 µM) | MBC (Gardnerella piotii; [7]): 1 µg/mL (≈ 2.35 µM) | MIC (Gardnerella piotii; [8]): 0.5 µg/mL (≈ 1.18 µM) | N resistant (Gardnerella piotii; N=7, resistance ≥32 μg/mL MDZ, ≥8 μg/mL CLI): 0 | MIC Range (Gardnerella piotii; N=7 strains): 0.125-2^ μg/mL | MIC90 (Gardnerella piotii; N=7 strains, read-out: MIC90): 2 µg/mL (≈ 4.71 µM) | MIC (Gardnerella piotii; G. piotii (BV049) UGent BV049.1, suspension): 0.125 µg/mL (≈ 0.294 µM) | MBC (Gardnerella piotii; G. piotii (BV140) UGent BV140.2): 64 µg/mL (≈ 151 µM) | MIC (Gardnerella leopoldii; [9]): 0.5 µg/mL (≈ 1.18 µM) | MBC (Gardnerella leopoldii; [10]): 1 µg/mL (≈ 2.35 µM) | MIC (Gardnerella leopoldii; G. leopoldii (BV217) UGent BV217.1, suspension): 0.5 µg/mL (≈ 1.18 µM) | MBC (Gardnerella leopoldii; G. leopoldii (BV217) UGent BV217.1): 1 µg/mL (≈ 2.35 µM) | MIC (Gardnerella leopoldii; [11]): 0.5 µg/mL (≈ 1.18 µM) | MBC (Gardnerella leopoldii; [12]): 1 µg/mL (≈ 2.35 µM) | N resistant (Gardnerella leopoldii; N=3, resistance ≥32 μg/mL MDZ, ≥8 μg/mL CLI): 0 | MIC Range (Gardnerella leopoldii; N=3 strains): 0.5 µg/mL (≈ 1.18 µM) | MIC90 (Gardnerella leopoldii; N=3 strains, read-out: MIC90): 0.5 µg/mL (≈ 1.18 µM) | MIC90 (Gardnerella vaginalis): 0.5 µg/mL (≈ 1.18 µM) | MBC (Gardnerella vaginalis; [13]): 0.5 µg/mL (≈ 1.18 µM) | MIC (Gardnerella vaginalis; [14]): 0.25 µg/mL (≈ 0.588 µM) | MIC (Gardnerella vaginalis; [15]): 0.25 µg/mL (≈ 0.588 µM) | MIC (Gardnerella vaginalis; [16]): 0.5 µg/mL (≈ 1.18 µM) | MIC Range (Gardnerella vaginalis; N=8 strains): <0.06 to 0.5 µg/mL | MBC (Gardnerella vaginalis; read-out: MBC99.5, G. vaginalis (BV50) UGent BV50.1): 0.5 µg/mL (≈ 1.18 µM) | MBC (Gardnerella vaginalis; [17]): 2 µg/mL (≈ 4.71 µM) | MBC (Gardnerella vaginalis; [18]): 1 µg/mL (≈ 2.35 µM) | MIC (Gardnerella swidsinskii): 0.125 µg/mL (≈ 0.294 µM) | MIC90 (Gardnerella swidsinskii): 0.5 µg/mL (≈ 1.18 µM) | MIC (Gardnerella swidsinskii; [19]): 0.5 µg/mL (≈ 1.18 µM) | MIC (Gardnerella swidsinskii; [20]): 0.25 µg/mL (≈ 0.588 µM) | MIC (Gardnerella swidsinskii; [21]): < 0.06 µg/mL | MIC Range (Gardnerella swidsinskii; N=4 strains): <0.06 to 0.5 µg/mL | MBC (Gardnerella swidsinskii; [22]): 1 µg/mL (≈ 2.35 µM) | MBC (Gardnerella swidsinskii; read-out: MBC99.5, G. swidsinskii (BV139) UGent BV139.3): 0.25 µg/mL (≈ 0.588 µM) | MBC (Gardnerella swidsinskii; [23]): 0.25 µg/mL (≈ 0.588 µM) | MBC (Gardnerella swidsinskii; [24]): 0.5 µg/mL (≈ 1.18 µM)

B1: H2B10B11: recombinant endolysin, SEQ ID NO: 37; differs from H2B10 in one amino acid exchange in one of the binding domains (protein)
chain: MSKRGIDVSEWQGDIDFNAVKASGVEFVIIRAGYGIGCKDKWFEQNYRKAKTCGLDVGAYWYSYANSGFEAAEEAQSCVNMLSGKSFEYPVYFDLEEKSQLNRGRAFCDSLITGFCNKLESCGYYAGFYTSLSTANNLVSAHVRNRYALWIAQWNTHCSYQGSYGLWQYSSSGSVPGVAGRVDMDYAYVDYPSIIKNVGLNGYKNGGSYTAPQISSIDEVAREVINGDWGNGNERKQRLTSAGYDYASVQNKVNELLGVKAYRKSVDELAREVIRGTWGNGSTRKQRLTQAGYDYDAVQKRVNELL
modifications: H2B10B11
Susceptibility of BV patient isolates of various origins (FIG. 6) [1]: susceptible | MIC and MBC99.5 values, readout after 48 h compared to 72 h ([1]; 15 strains determined both after 48 h and 72 h): one concentration lower | difference between the MICs of G. vaginalis and G. leopoldii/swidsinskii [1, 25]: no significant difference | difference in susceptibility between isolates from African and European BV patients [1, 25]: no significant difference | median MBC99.5 ([2]; 18 in-house BV patient isolates): 8 µg/mL | median MIC ([2]; 18 in-house BV patient isolates, H2B10B11 read after 72 h): 2 µg/mL | MIC90 ([2]; panel of 18 BV patient isolates): 4.4 µg/mL | Lytic effect on MDZ-resistant Gardnerella isolates (FIG. 5) ([2]; panel of n=18 BV patient isolates): maintained | inhibiting concentration (MIC) ([2]; the 10 MDZ-resistant isolates of the panel of 18): 4 to 8 µg/mL
